In experiment [1] the target is T1, human androgen receptor (Homo sapiens, UniProt P10275).
T1 construct: expressed in transfected cells; host or cells: HEK293
T1 sequence (P10275 1-920): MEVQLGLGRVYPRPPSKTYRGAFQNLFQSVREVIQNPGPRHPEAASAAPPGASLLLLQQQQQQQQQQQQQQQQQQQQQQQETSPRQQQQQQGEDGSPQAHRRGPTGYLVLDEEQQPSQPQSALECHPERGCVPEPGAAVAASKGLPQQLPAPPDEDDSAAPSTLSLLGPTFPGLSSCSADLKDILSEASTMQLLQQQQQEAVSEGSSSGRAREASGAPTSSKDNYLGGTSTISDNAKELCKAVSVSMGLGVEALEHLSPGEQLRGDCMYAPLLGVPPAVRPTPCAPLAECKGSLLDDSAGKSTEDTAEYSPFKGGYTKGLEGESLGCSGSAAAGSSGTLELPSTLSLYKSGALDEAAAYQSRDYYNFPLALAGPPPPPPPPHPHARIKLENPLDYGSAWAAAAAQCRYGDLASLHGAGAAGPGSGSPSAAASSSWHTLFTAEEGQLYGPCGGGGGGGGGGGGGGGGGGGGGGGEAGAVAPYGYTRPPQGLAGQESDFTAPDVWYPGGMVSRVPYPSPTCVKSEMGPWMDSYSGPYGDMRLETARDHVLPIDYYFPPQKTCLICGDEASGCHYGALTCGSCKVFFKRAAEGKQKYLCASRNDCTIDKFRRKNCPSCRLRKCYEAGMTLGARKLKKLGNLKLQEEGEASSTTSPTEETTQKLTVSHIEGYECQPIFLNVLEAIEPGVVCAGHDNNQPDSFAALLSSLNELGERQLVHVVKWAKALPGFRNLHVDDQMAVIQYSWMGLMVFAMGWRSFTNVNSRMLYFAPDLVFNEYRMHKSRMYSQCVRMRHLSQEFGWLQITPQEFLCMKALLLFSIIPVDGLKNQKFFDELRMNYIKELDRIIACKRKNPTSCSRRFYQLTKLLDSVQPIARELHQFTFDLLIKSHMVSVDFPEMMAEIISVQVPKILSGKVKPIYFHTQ
Description: Reporter assay of an androgen receptor responsive sequence (luciferase, transiently transfected HEK293 cells). In kind it is cell-based. The conditions noted are these: 24 hours incubation, relative to activity of 100 nM DHT, read-out: AR transcriptive activity (pEC50) (converted). Summed up: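 Agonism scored as pEC50, fitted by 4-parameter curve against the response to 100 nM DHT, from dual-luciferase readout after 24 h compound treatment. Cells were HEK293 co-transfected (3 h) with human AR expression vector, androgen-responsive firefly reporter and Renilla control, in charcoal-stripped serum.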
On the technique in general: Reporter assays use an easily measured gene product as a stand-in for the process of interest.

Experiment [2] addresses T2, androgen receptor (AR-LBD) (Rattus norvegicus, UniProt P15207).
T2 construct: 5 μL of 2×AR-LBD/Fluoromone AL Red Complex contained in the kit; purchased Invitrogen
T2 sequence (P15207 651-882 limits assumed): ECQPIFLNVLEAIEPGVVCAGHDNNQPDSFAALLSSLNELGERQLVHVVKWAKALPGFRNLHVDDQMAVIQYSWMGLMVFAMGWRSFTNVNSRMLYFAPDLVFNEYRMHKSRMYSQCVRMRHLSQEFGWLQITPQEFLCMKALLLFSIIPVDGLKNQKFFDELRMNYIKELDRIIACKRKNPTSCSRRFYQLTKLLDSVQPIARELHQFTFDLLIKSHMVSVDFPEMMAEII
The experiment in a line: Evaluation of androgen receptor affinity (PolarScreen Androgen Receptor Competitor Assay Kit, Red; fluorescence polarization). The settings on record: 22° C. for 5 hours, relative to binding rate of 1 μM DHT, read-out: AR affinity (pEC50) (converted). Summed up: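 Duplicate wells; compound plus AR-LBD tracer complex incubated 22° C for 5 h, then FP measured. Effect compared with 1 μM DHT; 50%-effect concentration expressed as pEC50.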
Background: Polarisation of emitted light reports the rotation of a fluorescent probe.

We go through 21 compounds from US10689354B2, “Aminoazole derivative” (Teijin Pharma Limited, priority 2015, dated 2020).

Some results are limits rather than exact numbers.

For the compound `Cc1sc(N(Cc2ccc(OC(F)F)nc2)c2ccc(C#N)cc2)nc1C(=O)NS(C)(=O)=O` [Compound 524, 2-[4-cyano-N-[[6-(difluoromethoxy)-3-pyridyl]methyl]anilino]-5-methyl-N-methylsulfonyl-thiazole-4-carboxamide], the EC50 in experiment [1] is 0.501 µM; in experiment [2] it was 0.0398 µM.

Turning to `COCCCS(=O)(=O)NC(=O)c1nc(N(Cc2ccc(OC(F)F)nc2)c2ccc(C#N)cc2)sc1C` [Compound 525, 2-[4-cyano-N-[[6-(difluoromethoxy)-3-pyridyl]methyl]anilino]-N-(3-methoxypropylsulfonyl)-5-methyl-thiazole-4-carboxamide], the EC50 was 0.631 µM in experiment [1] and 0.0501 µM in experiment [2].

Take `COCCCS(=O)(=O)NC(=O)c1nc(N(Cc2ccc(OC(F)F)c(F)c2)c2ccc(C#N)cc2)sc1C` [Compound 526, 2-[4-cyano-N-[[4-(difluoromethoxy)-3-fluoro-phenyl]methyl]anilino]-N-(3-methoxypropylsulfonyl)-5-methyl-thiazole-4-carboxamide]: the EC50 in experiment [1] was 0.1 µM; in experiment [2], 0.0398 µM.

As to `Cc1sc(N(Cc2ncc(F)cc2F)c2ccc(C#N)cc2)nc1C(=O)NS(C)(=O)=O` [Compound 527, 2-[4-cyano-N-[(3,5-difluoro-2-pyridyl)methyl]anilino]-5-methyl-N-methylsulfonyl-thiazole-4-carboxamide], the EC50 in experiment [1] was 1 µM; in experiment [2] it was 0.501 µM.

With `Cc1sc(N(Cc2ccc(Br)c(Cl)c2)c2ccc(C#N)cc2)nc1C(=O)NS(C)(=O)=O` [Compound 528, 2-[N-[(4-bromo-3-chloro-phenyl)methyl]-4-cyano-anilino]-5-methyl-N-methylsulfonyl-thiazole-4-carboxamide], the figures for the EC50 in experiment [1] and in experiment [2] were 7.94 µM and greater than 2 µM, respectively.

As to `Cc1sc(N(Cc2cc3ccccc3cn2)c2ccc(C#N)cc2)nc1C(=O)NS(C)(=O)=O` [Compound 529, 2-[4-cyano-N-(3-isoquinolylmethyl)anilino]-5-methyl-N-methylsulfonyl-thiazole-4-carboxamide], the EC50 in experiment [1] is 0.316 µM; in experiment [2], 0.398 µM.

Turning to `Cc1sc(N(Cc2cnc(C(F)(F)F)c(Cl)c2)c2ccc(C#N)cc2)nc1C(=O)NS(C)(=O)=O` [Compound 530, 2-[N-[[5-chloro-6-(trifluoromethyl)-3-pyridyl]methyl]-4-cyano-anilino]-5-methyl-N-methylsulfonyl-thiazole-4-carboxamide], the figures for the EC50 in experiment [1] and in experiment [2] were 0.501 µM and 0.0501 µM, respectively.

Turning to `COCCCS(=O)(=O)NC(=O)c1nc(N(Cc2cnc(C(F)(F)F)c(Cl)c2)c2ccc(C#N)cc2)sc1C` [Compound 531, 2-[N-[[5-chloro-6-(trifluoromethyl)-3-pyridyl]methyl]-4-cyano-anilino]-N-(3-methoxypropylsulfonyl)-5-methyl-thiazole-4-carboxamide], the EC50 in experiment [1] is 1 µM; in experiment [2] it was 0.1 µM.

As to `COCCCS(=O)(=O)NC(=O)c1nc(N(Cc2cnc(C(F)(F)F)c(OC)c2)c2ccc(C#N)cc2)sc1C` [Compound 532, 2-[4-cyano-N-[[5-methoxy-6-(trifluoromethyl)-3-pyridyl]methyl]anilino]-N-(3-methoxypropylsulfonyl)-5-methyl-thiazole-4-carboxamide], the EC50 in experiment [1] was 1.58 µM; in experiment [2], 0.2 µM.

Consider `COCCCS(=O)(=O)NC(=O)c1nc(N(Cc2cnc(C(F)(F)F)c(F)c2)c2ccc(C#N)cc2)sc1C` [Compound 533, 2-[4-cyano-N-[[5-fluoro-6-(trifluoromethyl)-3-pyridyl]methyl]anilino]-N-(3-methoxypropylsulfonyl)-5-methyl-thiazole-4-carboxamide], for which the EC50 in experiment [1] is 0.794 µM; in experiment [2] it was 0.158 µM.

In the case of `COCCCS(=O)(=O)NC(=O)c1nc(N(Cc2ccc(C(F)(F)F)c(C#N)c2)c2ccc(C#N)cc2)sc1C` [Compound 534, 2-[4-cyano-N-[[3-cyano-4-(trifluoromethyl)phenyl]methyl]anilino]-N-(3-methoxypropylsulfonyl)-5-methyl-thiazole-4-carboxamide], the EC50 in experiment [1] was 0.158 µM; in experiment [2] it was 0.1 µM.

With `COCCCS(=O)(=O)NC(=O)c1nc(N(Cc2ncc(Br)cc2F)c2ccc(C#N)cc2)sc1C` [Compound 535, 2-[N-[(5-bromo-3-fluoro-2-pyridyl)methyl]-4-cyano-anilino]-N-(3-methoxypropylsulfonyl)-5-methyl-thiazole-4-carboxamide], the EC50 was 0.316 µM in experiment [1] and 0.126 µM in experiment [2].

With `Cc1sc(N(Cc2ccc(OC(F)F)c(Cl)c2)c2ccc(C#N)cc2)nc1C(=O)NS(C)(=O)=O` [Compound 536, 2-[N-[[3-chloro-4-(difluoromethoxy)phenyl]methyl]-4-cyano-anilino]-5-methyl-N-methylsulfonyl-thiazole-4-carboxamide], the values for the EC50 in experiment [1] and in experiment [2] were 0.0398 µM and 0.02 µM, respectively.

In the case of `Cc1sc(N(Cc2cnc(C(F)(F)F)cn2)c2ccc(C#N)cc2)nc1C(=O)NS(C)(=O)=O` [Compound 537, 2-[4-cyano-N-[[5-(trifluoromethyl)pyrazin-2-yl]methyl]anilino]-5-methyl-N-methylsulfonyl-thiazole-4-carboxamide], the EC50 in experiment [1] was 0.631 µM; in experiment [2], 0.316 µM.

With `Cc1sc(N(Cc2ccnc(C(F)(F)F)c2)c2ccc(C#N)cc2)nc1C(=O)NS(C)(=O)=O` [Compound 538, 2-[4-cyano-N-[[2-(trifluoromethyl)-4-pyridyl]methyl]anilino]-5-methyl-N-methylsulfonyl-thiazole-4-carboxamide], the results for the EC50 in experiment [1] and in experiment [2] were 3.98 µM and 0.398 µM, respectively.

Regarding `COCCCCS(=O)(=O)NC(=O)c1nc(N(Cc2ccc(OC(F)(F)F)cc2)c2ccc(C#N)cc2)sc1C` [Compound 539, 2-[4-cyano-N-[[4-(trifluoromethoxy)phenyl]methyl]anilino]-N-(4-methoxybutylsulfonyl)-5-methyl-thiazole-4-carboxamide], the EC50 is 0.158 µM in experiment [1] and 0.0158 µM in experiment [2].

As for `COCCOCCCS(=O)(=O)NC(=O)c1nc(N(Cc2ccc(OC(F)(F)F)cc2)c2ccc(C#N)cc2)sc1C` [Compound 540, 2-[4-cyano-N-[[4-(trifluoromethoxy)phenyl]methyl]anilino]-N-[3-(2-methoxyethoxy)propylsulfonyl]-5-methyl-thiazole-4-carboxamide], the EC50 was greater than 10 µM in experiment [1] and 0.316 µM in experiment [2].

For the compound `Cc1oc(N(CCc2ccc(Cl)cc2)Cc2cccc(OC(F)(F)F)c2)nc1C(=O)NS(C)(=O)=O` [Compound 542, 2-[2-(4-chlorophenyl)ethyl-[[3-(trifluoromethoxy)phenyl]methyl]amino]-5-methyl-N-methylsulfonyl-oxazole-4-carboxamide], the EC50 in experiment [1] was 0.501 µM; in experiment [2], 0.0794 µM.

With `Cc1oc(N(CCc2ccc(Cl)cc2)Cc2ccccc2OC(F)F)nc1C(=O)NS(C)(=O)=O` [Compound 543, 2-[2-(4-chlorophenyl)ethyl-[[2-(difluoromethoxy)phenyl]methyl]amino]-5-methyl-N-methylsulfonyl-oxazole-4-carboxamide], the EC50 in experiment [1] was 1.26 µM; in experiment [2] it was 0.0501 µM.

Consider `Cc1oc(N(CCc2ccc(Cl)cc2)Cc2ccc(OC(F)(F)F)cc2)nc1C(=O)NS(C)(=O)=O` [Compound 544, 2-[2-(4-chlorophenyl)ethyl-[[4-(trifluoromethoxy)phenyl]methyl]amino]-5-methyl-N-methylsulfonyl-oxazole-4-carboxamide], for which the EC50 in experiment [1] is 0.316 µM; in experiment [2], 0.0398 µM.

Take `Cc1oc(N(CCc2ccc(Cl)cc2)Cc2ccc3ncsc3c2)nc1C(=O)NS(C)(=O)=O` [Compound 545, 2-[1,3-benzothiazol-6-ylmethyl-[2-(4-chlorophenyl)ethyl]amino]-5-methyl-N-methylsulfonyl-oxazole-4-carboxamide]: the values for the EC50 in experiment [1] and in experiment [2] were 0.158 µM and 0.0398 µM, respectively.
